One series has as its target T1, human tau (hTau) (Homo sapiens, UniProt P10636).
T1 construct: expressed in transfected cells
As to the kind of experiment: Tau clearance in HEK293-hTau cells by Western blotting. In kind it is cell-based. The procedure:
SH-SY5Y human neuroblastoma cells were cultured in 90% DME/F-12 medium (HyClone, SH30023.01) with 10% fetal bovine serum (FBS) (Biological Industries, 04-001-1ACS) and penicillin (100 U/mL)/ streptomycin (100 μg/mL) in a 37 °C incubator with humidified atmosphere of 5% CO2. Human embryonic kidney 293 cells (HEK293) or HEK293 with stable expression of wild-type full-length human tau (termed as HEK293-hTau) were cultured in 90% DMEM/High Glucose medium (HyClone, SH30022.01) containing 10% FBS and 200 μg/mL G418 (ThermoFisher Scientific, 10131027), in a humidified atmosphere of 5% CO2 at 37 °C. Neofect (DNA transfection reagent, TF20121201) was used for plasmids transfection. The cells were placed onto 6-well or 12-well plates. Plasmids (EGFP-hTau or 3xFlag-hTau or the vector), neofect and Opti-MEM medium (Gibco, 31985-070) were made into a mixture in a ratio of 1 μg: 1 μL : 100 μL and then added into each well of the plate. To inhibit proteasome activity, HEK293-hTau cells were cultured with DMEM/High medium containing 20 μM C004019 with or without 10 μM MG132, or the same volume of vehicle (DMSO) for 24 h at 37 °C. To induce tau hyperphosphorylation, SH-SY5Y cells were cultured with DME/F-12 medium containing 10 μM C004019 with or without 1 μM GFX and 1 μM WO for 24 h at 37 °C.
The cells or hippocampal/cortex tissues were homogenized for ~ 30 min on ice in buffer [50 mM Tris·HCl pH 7.4-7.5, 100 mM NaCl, 1% (vol/vol) Triton X-100, 5 mM EDTA, 1:100 PMSF, 1:1,000 protease inhibitor cocktail containing 4-(2-Aminoethyl)-benzenesulfonyl fluoride hydrochloride, aprotinin, bestatin, leupeptin, E-64, and pepstatin A stored at 4 °C], and then centrifuged at 12,000 × g at 4 °C for 20 min. The supernatant was collected and the protein levels were analyzed using bicinchoninic acid (BCA, KF016, Sigma-Aldrich) by following the manufacturer's instruction (served as soluble protein). The pellet was further incubated with 8% (wt/vol) SDS buffer at 4 °C and then treated by ultrasonic wave to reach a complete resuspension. […] Immunoreactive bands were quantitatively analyzed by Image J2x software.

Series [1] in a line: Pharmacokinetics study, plasma and brain concentration by LC-MS/MS. The format is in vivo. The conditions noted are these: male, mouse, sc, C57BL/6 mice, subcutaneous 3 mg/kg. The procedure:
Male C57BL/6 mice (age of 6-8 weeks with bodyweight 21-23 g; N = 24) were purchased from JH Laboratory Animal Co. LTD. Subcutaneous injection dosing solution was prepared by diluting C004019 stock solution in 20% HP-β-CD in saline. The animals were administrated with C004019 at a dose of 3 mg/kg (10 mL/kg) via subcutaneous injection (N = 3 per timepoint), and then were anaesthetized via isoflurane at the designated time points, followed by collection of approximately 110 µL of blood sample into EDTA-2K tubes via retro-orbital puncture or cardiac puncture for terminal bleeding. The brain samples were collected at the designated time points after blood collection. All the samples were first maintained in wet ice and then the blood samples were centrifuged (2000 g, 4 °C, 5 min) to obtain plasma within 15 minutes post sampling. Afterwards, all the plasma samples and brain samples were stored at approximately -70 °C until analysis. The concentration of C004019 in plasma and brain was determined using liquid chromatograph mass spectrometry/mass spectrometry (LC-MS/MS) with a UPLC/MS-MS-015 (QTRAP 5500).

The structures appear in SMILES notation. Where two headings read alike, the source gives them in different places.

The term DC50 denotes the midpoint of the concentration-degradation curve. The Tmax is the time from dosing to the highest level.

T1 sequence (P10636 1-441 isoform P10636-8): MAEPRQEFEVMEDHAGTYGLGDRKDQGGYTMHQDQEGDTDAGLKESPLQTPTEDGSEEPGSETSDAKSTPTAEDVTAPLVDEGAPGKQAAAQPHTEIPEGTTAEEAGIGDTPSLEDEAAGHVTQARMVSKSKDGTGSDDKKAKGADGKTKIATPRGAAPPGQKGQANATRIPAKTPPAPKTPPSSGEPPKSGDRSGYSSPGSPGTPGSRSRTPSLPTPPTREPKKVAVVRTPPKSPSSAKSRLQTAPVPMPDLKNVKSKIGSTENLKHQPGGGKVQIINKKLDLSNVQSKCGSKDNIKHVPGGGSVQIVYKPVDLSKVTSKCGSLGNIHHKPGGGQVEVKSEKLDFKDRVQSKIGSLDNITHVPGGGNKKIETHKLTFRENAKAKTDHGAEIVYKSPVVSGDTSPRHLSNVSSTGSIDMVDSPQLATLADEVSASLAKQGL

In the case of `CC(=O)N1CCCN(c2nc(NCCc3cccs3)nc(N(C)CC(=O)NCCOCCOCCOCC(=O)N[C@H](C(=O)N3C[C@H](O)C[C@H]3C(=O)NCc3ccc(-c4scnc4C)cc3)C(C)(C)C)n2)CC1` [C004019], the “total tau (Tau5) and p-tau level” value on human tau (hTau) (HEK293-hTau cells, Western blotting) is reported as “concentration-dependent reduction”. Besides, on human tau (hTau) (cultured cells, read-out: DC50 (tau degrader)), the DC50 is around 5 nM. In addition, the brain-to-plasma Cmax ratio in series [1] (brain/plasma, read-out: ratio of brain tissue maximal concentration to the plasma maximal concentration (Kpuu value)) amounted to 0.00866. The AUC(0-inf) came out at 12.6 ng·h/mL in series [1] (brain, read-out: AUCINF in brain) and 1800 ng·h/mL in series [1] (plasma, read-out: AUCINF in plasma). The AUC(0-t) in series [1] (brain, read-out: AUClast in brain) is 8.42 ng·h/mL; in series [1] (plasma, read-out: AUClast in plasma), 1190 ng·h/mL. Further, the Cmax in series [1] (brain, read-out: Cmax in brain (maximal brain concentration)) worked out at 10.8 ng/mL; in series [1] (plasma, read-out: Cmax in plasma), 1250 ng/mL. Further, the MRT inf amounted to 1.8 h in series [1] (brain, read-out: MRTINF in brain) and 1.87 h in series [1] (plasma, read-out: MRTINF in plasma). Further, the half-life was 1.29 h in series [1] (brain, read-out: T1/2 in brain (converted)) and 1.33 h in series [1] (plasma, read-out: T1/2 in plasma (converted)). Moreover, the Tmax in series [1] (brain, read-out: Tmax in brain) was determined as 0.167 h; in series [1] (plasma, read-out: Tmax in plasma), 0.167 h.

For the origin of these results see paper PMC8039949, “A novel small-molecule PROTAC selectively promotes tau clearance to improve cognitive functions in Alzheimer-like models” (Theranostics, 2021).
